Reference: the supplement of paper PMC10307832

Tests used:
Assay in all cases: relative viability (nuclei count vs DMSO), 5 days (fraction); higher = more cells survive
Dovitinib + Phenformin = compound: CN1CCN(c2ccc3nc(-c4c(N)c5c(F)cccc5[nH]c4=O)[nH]c3c2)CC1 [Dovitinib] + N=C(N)NC(=N)NCCc1ccccc1 [Phenformin] (partner 250 µM)
Outline: (§1)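 Lung cancer cell lines in 1536-well plates got either a single drug or a fixed anchor-drug dose together with five library-drug doses (not always all listed) in √10 steps, by pin tool, on the day after seeding. Nuclei were counted after 5 days, and relative viability is the treated-to-vehicle ratio of nuclei counts. Values are medians of duplicate plates.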

Dovitinib + Trametinib = compound: CN1CCN(c2ccc3nc(-c4c(N)c5c(F)cccc5[nH]c4=O)[nH]c3c2)CC1 [Dovitinib] + CC(=O)Nc1cccc(-n2c(=O)n(C3CC3)c(=O)c3c(Nc4ccc(I)cc4F)n(C)c(=O)c(C)c32)c1 [Trametinib] (partner 0.02 µM)
Outline: as §1

Dovitinib + OSI-027 = compound: CN1CCN(c2ccc3nc(-c4c(N)c5c(F)cccc5[nH]c4=O)[nH]c3c2)CC1 [Dovitinib] + COc1cccc2cc(-c3nc([C@H]4CC[C@H](C(=O)O)CC4)n4ncnc(N)c34)[nH]c12 [OSI-027] (partner 0.5 µM)
Outline: as §1

Dovitinib = compound: CN1CCN(c2ccc3nc(-c4c(N)c5c(F)cccc5[nH]c4=O)[nH]c3c2)CC1 [Dovitinib]
Outline: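 Hoechst staining, done together with fixation and permeabilisation, marked nuclei for 4× imaging and MetaXpress counting. This followed 5 days without medium change after lung cancer cell lines, kept overnight at 37 °C in 1536-well plates, were pinned with five library-drug doses (not always all listed) spaced by √10 on vehicle-anchored plates. Viability is the ratio of treated-well to vehicle-well nuclei, expressed as a median across plates. Plates passed only at control CV below 25% with at least one doubling.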

Cell Line	relative viability (Dovitinib + Phenformin; first compound 0.02 µM)	relative viability (Dovitinib + Phenformin; first compound 0.06325 µM)	relative viability (Dovitinib + Phenformin; first compound 0.2 µM)	relative viability (Dovitinib + Phenformin; first compound 0.6325 µM)	relative viability (Dovitinib + Phenformin; first compound 2 µM)	relative viability (Dovitinib + Trametinib; first compound 0.02 µM)	relative viability (Dovitinib + Trametinib; first compound 0.06325 µM)	relative viability (Dovitinib + Trametinib; first compound 0.2 µM)	relative viability (Dovitinib + Trametinib; first compound 0.6325 µM)	relative viability (Dovitinib + Trametinib; first compound 2 µM)	relative viability (Dovitinib + OSI-027; first compound 0.02 µM)	relative viability (Dovitinib + OSI-027; first compound 0.06325 µM)	relative viability (Dovitinib + OSI-027; first compound 0.2 µM)	relative viability (Dovitinib + OSI-027; first compound 0.6325 µM)	relative viability (Dovitinib + OSI-027; first compound 2 µM)	relative viability (Dovitinib; 0.02 µM)	relative viability (Dovitinib; 0.06325 µM)	relative viability (Dovitinib; 0.2 µM)	relative viability (Dovitinib; 0.6325 µM)	relative viability (Dovitinib; 2 µM)
NCI-H441	0.981	0.786	0.767	0.898	0.839	0.486	0.477	0.434	0.441	0.49	0.639	0.565	0.682	0.61	0.644	1.08	1.11	1.04	1.07	1.06
NCI-H460	0.488	0.563	0.517	0.49	0.498	0.161	0.146	0.206	0.224	0.128	0.587	0.842	0.708	0.708	0.721	0.982	1.02	0.993	0.985	0.964
NCI-H520	0.558	0.572	0.625	0.514	0.545	0.599	0.619	0.812	0.586	0.638	0.279	0.248	0.334	0.244	0.23	1.01	1.02	0.944	0.976	0.955
NCI-H522	0.637	0.686	0.583	0.625	0.769	0.731	0.656	0.829	0.687	0.933	0.685	0.721	0.654	0.768	0.686	1	1.09	1.22	1.03	0.924
NCI-H596	0.711	0.864	0.785	0.815	0.804	0.701	0.844	0.764	0.694	0.777	0.644	0.776	0.669	0.808	0.779	0.965	0.957	1	1.12	0.932
NCI-H647	0.396	0.49	0.638	0.621	0.48	0.456	0.49	0.435	0.399	0.494	0.608	0.758	0.817	0.657	0.802	0.957	0.991	1.04	0.991	0.949
NCI-H650	0.442	0.417	0.446	0.461	0.504	1.02	0.952	1.08	0.946	1.21	0.503	0.515	0.538	0.521	0.565	0.97	0.883	1	0.927	1.03
NCI-H661	0.267	0.328	0.304	0.268	0.308	0.581	0.617	0.678	0.637	0.607	0.689	0.706	0.753	0.732	0.729	0.988	0.993	1.04	1.03	1.06
NCI-H727	0.524	0.488	0.664	0.516	0.642	0.405	0.401	0.407	0.416	0.426	0.778	0.434	0.589	0.653	0.548	1.1	0.782	0.968	0.989	0.921
NCI-H838	0.553	0.627	0.74	0.62	0.662	0.514	0.499	0.487	0.477	0.543	0.324	0.41	0.385	0.37	0.471	0.935	1	1.01	0.95	0.966
NCI-H1355	0.428	0.428	0.477	0.433	0.529	0.461	0.405	0.475	0.45	0.492	0.443	0.386	0.392	0.48	0.388	1.04	0.931	1.04	0.989	1.07
NCI-H1395	0.455	0.415	0.488	0.445	0.462	1.04	0.984	1.07	1.02	1.06	0.637	0.706	0.682	0.651	0.672	0.99	0.849	0.959	0.827	1.15
NCI-H1437	0.297	0.292	0.595	0.304	0.346	0.564	0.475	0.521	0.519	0.462	0.877	0.881	0.867	0.903	0.916	0.973	1.03	0.971	1.04	1.02
NCI-H1650	0.517	0.5	0.513	0.448	0.388	0.718	0.625	0.757	0.598	0.816	0.687	0.619	0.621	0.711	0.768	0.949	0.998	0.987	0.93	1.05
NCI-H1651	0.336	0.352	0.485	0.347	0.275	0.852	0.809	0.816	0.81	0.857	0.733	0.723	0.765	0.77	0.688	0.986	0.999	1.03	1.06	0.963
NCI-H1666	0.612	0.579	0.588	0.554	0.566	1.02	0.881	0.939	0.945	0.855	0.931	0.882	0.838	0.875	0.909	1.2	1.09	1.09	1.01	1.01

Cell Line	relative viability (Dovitinib + Phenformin; first compound 0.02 µM)	relative viability (Dovitinib + Phenformin; first compound 0.06325 µM)	relative viability (Dovitinib + Phenformin; first compound 0.2 µM)	relative viability (Dovitinib + Phenformin; first compound 0.6325 µM)	relative viability (Dovitinib + Phenformin; first compound 2 µM)	relative viability (Dovitinib + Trametinib; first compound 0.02 µM)	relative viability (Dovitinib + Trametinib; first compound 0.06325 µM)	relative viability (Dovitinib + Trametinib; first compound 0.2 µM)	relative viability (Dovitinib + Trametinib; first compound 0.6325 µM)	relative viability (Dovitinib + Trametinib; first compound 2 µM)	relative viability (Dovitinib + OSI-027; first compound 0.02 µM)	relative viability (Dovitinib + OSI-027; first compound 0.06325 µM)	relative viability (Dovitinib + OSI-027; first compound 0.2 µM)	relative viability (Dovitinib + OSI-027; first compound 0.6325 µM)	relative viability (Dovitinib + OSI-027; first compound 2 µM)	relative viability (Dovitinib; 0.02 µM)	relative viability (Dovitinib; 0.06325 µM)	relative viability (Dovitinib; 0.2 µM)	relative viability (Dovitinib; 0.6325 µM)	relative viability (Dovitinib; 2 µM)
NCI-H1734	0.418	0.408	0.38	0.396	0.372	0.652	0.68	0.762	0.651	0.642	0.655	0.632	0.687	0.575	0.55	0.928	0.974	0.934	0.963	0.984
NCI-H1755	0.625	0.601	0.617	0.591	0.657	0.831	0.766	0.794	0.733	0.758	0.744	0.732	0.759	0.714	0.712	1.04	1.02	1.01	0.998	1.02
NCI-H1792	0.384	0.264	0.482	0.357	0.322	0.394	0.457	0.416	0.46	0.36	0.79	0.641	0.762	0.755	0.61	0.898	0.818	0.894	1.04	0.907
NCI-H1793	0.41	0.326	0.368	0.283	0.515	0.458	0.36	0.388	0.445	0.445	0.304	0.269	0.313	0.332	0.302	1.07	0.977	1.02	1.09	1.01
NCI-H1915	0.361	0.38	0.365	0.358	0.379	0.275	0.282	0.306	0.283	0.319	0.559	0.635	0.621	0.602	0.647	0.937	0.975	1	1.01	0.981
NCI-H1944	0.216	0.198	0.244	0.202	0.217	0.391	0.395	0.409	0.395	0.36	0.426	0.383	0.398	0.39	0.431	0.94	0.94	1.08	1.02	1.01
NCI-H1975	0.427	0.415	0.411	0.409	0.423	0.404	0.405	0.329	0.382	0.388	0.749	0.735	0.732	0.664	0.666	0.916	0.966	1.03	0.976	0.947
NCI-H1993	0.483	0.516	0.496	0.499	0.505	0.517	0.481	0.489	0.58	0.502	0.599	0.545	0.597	0.505	0.573	1.21	0.863	1	0.988	1.07
NCI-H2009	0.456	0.493	0.47	0.408	0.562	0.291	0.301	0.289	0.228	0.265	0.546	0.621	0.642	0.638	0.611	0.881	1.01	1.02	1.03	1.12
NCI-H2023	0.38	0.416	0.457	0.38	0.398	0.549	0.493	0.405	0.5	0.537	0.429	0.404	0.476	0.394	0.362	0.94	0.969	1.11	1	0.926
NCI-H2085	0.69	0.846	0.732	0.771	0.717	0.534	0.628	0.599	0.528	0.627	0.672	0.71	0.734	0.829	0.839	1	1.01	1.03	1.02	0.985
NCI-H2087	0.415	0.437	0.516	0.53	0.467	0.274	0.221	0.251	0.196	0.214	0.57	0.487	0.757	0.484	0.554	0.981	0.982	1.05	1.18	1.05
NCI-H2126	0.524	0.504	0.582	0.536	0.581	0.576	0.56	0.569	0.598	0.522	0.74	–	0.855	0.699	0.638	1.01	0.966	1.01	0.983	1.05
NCI-H2170	0.357	0.43	0.448	0.338	0.452	0.928	0.92	1.04	0.866	0.945	0.572	0.711	0.718	0.708	0.723	0.868	1.01	1.04	0.982	0.946
NCI-H2228	0.288	0.419	0.285	0.432	0.285	0.652	0.467	0.454	0.507	0.488	0.638	0.533	0.512	0.681	0.635	0.832	1.17	1.16	0.966	0.962
